Reference: patent US20240300913A1, “FLAVONE DERIVATIVE AND USE THEREOF FOR IMPROVING PULMONARY FIBROSIS” (A-CHEMBIO CO., LTD, priority 2023, published 2024)

Columns and labels:
A549 cells [1] = experiment: Effect upon EGF treatment in A549 cells (western blot of protein levels); format: cell-based; details: 1 hour
Description: (§1) A549 cells, derived from lung cancer, were incubated at different cell numbers depending on the sample treatment time. 4.5×10^5 cells (30 minutes to 12 hours), 4.0×10^5 cells (24 hours), and 3.5×10^5 cells (48 hours) were suspended in the respective media, dispensed into a 60-mm plate, and incubated for 24 hours. After 24 hours, each plate was treated with EGF (2 ng/ml) alone or in combination with novel flavone derivative I at varying concentrations or a predetermined concentration. After a predetermined period (30 minutes to 48 hours) of incubation, the cells were lysed with RIPA lysis buffer ([50 mM Tris]-Cl (pH, 7.4), 1% NP-40, 150 mM NaCl, 1 mM EDTA, and 1 mM, phenylmethylsulfonyl fluoride (PMSF)) containing MG-132 (10 μM). Next, only the supernatant was collected by centrifugation (at 14,000 rpm for 10 minutes) at 4° C., and the proteins were separated by SDS-polyacrylamide gel electrophoresis (SDS-PAGE). […]
FIGS. 11 and 12 show the results thereof. […] Thus, the degree to which pulmonary fibrosis-related factors, whose expression levels were increased in A549 cells by EGF treatment, were inhibited by the treatment with novel flavone derivative I was evaluated.
The effect of novel flavone derivative II upon EGF treatment in A549 cells was evaluated in the same manner as in Example 1 above.

HLF cells = experiment: MTT cytotoxicity evaluation in HLF cells; format: cell-based, human; details: all treatment concentrations up to 10 μM, incubated for 24, 48, and 72 hours, compared to untreated control
Description: To confirm the effect of novel flavone derivative I on cell viability, human lung fibroblasts (HLF) were used to examine cell viability with MTT [3-(4,5-dimethylthiazol-2-yl)-2,5-diphenyltetrazolium bromide]. After being suspended in a medium, HLF cells were dispensed into a 96-well plate and incubated for 24 hours. […] After incubation, all media was removed, and MTT was diluted (0.5 mg/mL) in phosphate-buffered saline (PBS). Then, 200 μL of the diluted MTT was dispensed into each well, and incubation was performed in a CO2 incubator for 4 hours. After 4 hours, the MTT solution was removed, and 160 μL of dimethyl sulfoxide (DMSO) was dispensed into each well to dissolve the formazan precipitate for 30 minutes. Next, the absorbance was measured at 570 nm.
(§2) Cytotoxicity tests of novel flavone derivative II (Achem II) on A549 cells, HULEC-5a cells, and HLF cells were performed in the same manner as in Example 1 above, using the MTT assay. The results thereof are shown in FIGS. 17 to 19 as cell viability (%) after 24, 48, and 72 hours compared to that of the control group, the untreated sample group.
as §2, with “III” for “II”, “III)” for “II)”, “27” for “17”, “29” for “19”

A549 cells [2] = experiment: Effect of bleomycin treatment on A549 cells (western blot of protein levels); format: cell-based; details: BLM and/or compound, 3, 24, and 48 hours
Description: as §1, with “bleomycin (BLM)” for “EGF (2 ng/ml)”, “at” for “at varying concentrations or”, “period” for “period (30 minutes to 48 hours)”, “mM” for “mM,”, “(SDS-PAGE). The separated proteins were transferred to a polyvinylidene difluoride membrane (PVDF membrane), reacted in 5% nonfat dry milk for 3 hours, and then reacted with primary antibodies at 4° C. for 12 hours. After 12 hours, the proteins further reacted with secondary antibodies corresponding to the respective primary antibodies. Then, the protein band was examined, according to the manufacturer's protocol, using an ECL kit.” for “(SDS-PAGE).”

A549 cells [3] = experiment: MTT cytotoxicity evaluation in A549 cells; format: cell-based; details: for cell viability: compared to untreated control
Description: To confirm the effect of novel flavone derivative I on cell viability, A549 cells, derived from lung cancer, were used to examine cell viability with MTT [3-(4,5-dimethylthiazol-2-yl)-2,5-diphenyltetrazolium bromide]. After being suspended in a medium, A549 cells were dispensed into a 96-well plate and incubated for 24 hours. After 24 hours, 200 μL of a medium containing 0 to 20 μM BGC was added to each well of the plate and incubated for 24 or 48 hours. After incubation, MTT was diluted (0.5 mg/ml) in phosphate-buffered saline (PBS). Then, 20 μL of the diluted MTT was dispensed into each well, and incubation was performed in a CO2 incubator for 4 hours. After 4 hours, the MTT solution was removed, and 200 μL of dimethyl sulfoxide (DMSO) was dispensed into each well to dissolve the formazan precipitate for 5 minutes. Next, the absorbance was measured at 595 nm.
as §2
as §2, with “III” for “II”, “III)” for “II)”, “27” for “17”, “29” for “19”

Row | Compound | levels of fibrosis-related factors (p-EGFR, EGFR, p-AKT, HIF-1α, and NOX2), increased by EGF treatment (A549 cells [1]; 2 ng/mL EGF and compound at 1, 3, and 5 or 2 μM, FIGS. 11 and 12) | cell viability (HLF cells) | levels of pulmonary fibrosis-related factors (fibronectin, α-SMA, HIF-1α, NOX1, NOX2, and NOX4), increased by BLM treatment (A549 cells [2]) | cytotoxicity (A549 cells [3]; treatment concentration of 5 μM, incubated for 24 hours, MTT) | cell viability (A549 cells [3]; treatment concentration of 5 μM, incubated for 48 hours) | level of NOX2, a fibrosis-related factor increased by EGF treatment (A549 cells [1]; 2 ng/mL EGF and compound, FIG. 24) | cell viability (A549 cells [3]; all treatment concentrations, incubated for 24 and 48 hours) | cell viability (A549 cells [3]; concentrations of 3 μM or higher, incubated for 72 hours)
1 | COc1ccc(-c2c(-c3ccc(O)c(O)c3)oc3cc(OC)c(OC)cc3c2=O)cc1 [novel flavone derivative I, 2-(3,4-dihydroxyphenyl)-6,7-dimethoxy-3-(4-methoxyphenyl)-4H-chromen-4-one] | decreased | ≥ 80% | decreased | No cytotoxicity was observed | about 80% | – | – | –
2 | COc1ccc(-c2c(-c3ccc(O)c(OC)c3)oc3cc(OC)c(OC)cc3c2=O)cc1 [novel flavone derivative II, 2-(4-hydroxy-3-methoxyphenyl)-6,7-dimethoxy-3-(4-methoxyphenyl)-4H-chromen-4-one] | – | ≥ 80% | – | – | – | decreased | ≥ 80% | ≤ 80%
